Tested on: Normal Human Astrocytes (NHA)
Test: Long-term culturing of human astrocytes using medium containing inhibitor (Example 1)
Format: cell-based
Conditions: for Number of days up to day of final passage / Passage number: NHA, 41 days of culturing, Y 10 μM, A 0.5 μM
Description: Long-term culturing of human astrocytes was performed using the following materials, reagents, and products for culturing.
• Normal Human Astrocytes (NHA) (CC-2565, Lonza Group AG)
• Culture medium: AGM Astrocyte Growth Medium Bullet Kit (CC-3186, Lonza Group AG) (composition of AGM: basal medium, FBS (3% (v/v)), L-glutamine, ascorbic acid, hEGF, insulin, and antibiotic) • Inhibitor Y: CultureSure (registered trademark) Y-27632 (034-24024, FUJIFILM Wako Pure Chemical Corporation), final concentration: 10 μM • Inhibitor A: CultureSure (registered trademark) A-83-01(035-24113, FUJIFILM Wako Pure Chemical Corporation), final concentration: 0.5 μM • Cell detachment agent: Accutase (AT104, Innovative Cell Technologies, Inc.) • Cell buffer: phosphate buffered saline (Dulbecco's formula; without calcium and magnesium) (BNDSBN200, KAC Co., Ltd.) • Medium for cell freezing: CELLBANKER 1 (CB011 TaKaRa Bio Inc. (NIPPON ZENYAKU KOGYO CO., LTD.)) • Cell culturing dish 60 mm (150462, Thermo Fisher Scientific Inc.) • Cell culturing dish 100 mm (150466, Thermo Fisher Scientific Inc.) • Cell culturing dish 150 mm (150468, Thermo Fisher Scientific Inc.) • Stericup Quick Release-GP Sterile Vacuum Filtration System (S2GPU02RE, Merck Millipore) • Inhibitor-free medium for culture supernatant collection: Dulbecco's Modied Eagle Medium (DMEM) (C11995500CP, Gibco (registered trademark), Thermo Fisher Scientific Inc.) and N-2 Supplement (x100) (17502-048, Gibco (registered trademark), Thermo Fisher Scientific Inc.)
The long-term culturing was performed in accordance with the following procedure. A frozen tube of the human astrocyte cells (NHA) was thawed in a water bath at 37° C. Next, the lysed cells were transferred to the culture medium so that the total volume was 10 mL and subjected to centrifugation at 180×g for 3 minutes at room temperature, and then the medium was removed. The cells were divided into 4 groups; a group to which only the inhibitor Y was added (hereinafter, the NHA-Y group), a group to which only the inhibitor A was added (hereinafter, the NHA-A group), a group to which the inhibitor Y and the inhibitor A were added (hereinafter, the NHA-YA group), and a group to Ih no inhibitor was added (normal group).
The medium was replaced every other day or every two days with fresh culture medium containing each inhibitor (or not containing any inhibitor). When the confluency reached 80 to 90%, the cells were detached using the cell detachment agent, and the cells were suspended in the culture medium containing each inhibitor (or not containing any inhibitor) and passaged into a 6-well plate at a seeding density of 4.2×10^3 cells/cm^2. While continuing the passaging, the culturing was performed for 41 days in the culture medium containing each inhibitor (or not containing any inhibitor).
The cell passage number and the number of days up to the day of final passage in each group are indicated in the following Table 1, and the correlations between the number of culturing days and the total number of cells are indicated in Table 2.

Row | Structure (SMILES) | Number of days up to day of final passage | Passage number | Number of cells (culturing day 0) | Number of cells (culturing day 5) | Number of cells (culturing day 15) | Number of cells (culturing day 23) | Number of cells (culturing day 30) | Number of cells (culturing day 8) | Number of cells (culturing day 13) | Number of cells (culturing day 19) | Number of cells (culturing day 29)
1 | Cc1cccc(-c2nn(C(=S)Nc3ccccc3)cc2-c2ccnc3ccccc23)n1 [A, 3-(6-methylpyridin-2-yl)-4-(4-quinolyl)-1-phenylthiocarbamoyl-1H-pyrazole] | 30 days | 4 times | 8.00 ×10^4 cells | 55.75 ×10^4 cells | 264.81 ×10^4 cells | 595.83 ×10^4 cells | 1005.46 ×10^4 cells |  |  |  | 
2 | C[C@@H](N)[C@H]1CC[C@H](C(=O)Nc2ccncc2)CC1 [Y] | 29 days | 5 times | 8.00 ×10^4 cells | 87.25 ×10^4 cells |  |  |  | 245.39 ×10^4 cells | 391.09 ×10^4 cells | 733.30 ×10^4 cells | 756.21 ×10^4 cells
